Test results: patent US20250098726A1, “AEROSOLISABLE MATERIAL” (Nicoventures Trading Limited, priority 2022, published 2025)

Assay: solubility trial of sensates in propylene glycol/glycerol mixture
Format: physicochemical
Settings: PG:VG 70:30, sensate w/w % subtracted from PG (Symheat PV 1, WS-3 0.8, Ginger Extract 0.1 w/w %); one hour following addition of VG
From the text: Formulations were produced containing propylene glycol (PG) and glycerol (VG) at a 70:30 ratio with the w/w % sensate addition subtracted from the w/w % of propylene glycol as is typical in the art.

SMILES: CCNC(=O)[C@@H]1C[C@H](C)CC[C@H]1C(C)C (stereo in doubt) [WS-3, N-ethyl-5-methyl-2-propan-2-ylcyclohexane-1-carboxamide]
- Soluble: ✓
